The values that follow come from US5561113A, “New pseudopeptide compounds of neurokinins” (priority 1994, dated 1996).

For orientation: Ki means the equilibrium dissociation constant of an inhibitor or competing ligand from its target. A high value points to lower affinity. A word on the ED50: it is the dose that gives a 50% effect, or the effect in half of the subjects.

Structures can show the parent of a compound that is named as a salt.

Series [1] has as its target T1, NK3 receptors (Rattus norvegicus, UniProt P16177).
T1 construct: three preparations isolated from smooth muscle were used; from tissue; host or cells: rat portal vein
T1 sequence (P16177 1-452): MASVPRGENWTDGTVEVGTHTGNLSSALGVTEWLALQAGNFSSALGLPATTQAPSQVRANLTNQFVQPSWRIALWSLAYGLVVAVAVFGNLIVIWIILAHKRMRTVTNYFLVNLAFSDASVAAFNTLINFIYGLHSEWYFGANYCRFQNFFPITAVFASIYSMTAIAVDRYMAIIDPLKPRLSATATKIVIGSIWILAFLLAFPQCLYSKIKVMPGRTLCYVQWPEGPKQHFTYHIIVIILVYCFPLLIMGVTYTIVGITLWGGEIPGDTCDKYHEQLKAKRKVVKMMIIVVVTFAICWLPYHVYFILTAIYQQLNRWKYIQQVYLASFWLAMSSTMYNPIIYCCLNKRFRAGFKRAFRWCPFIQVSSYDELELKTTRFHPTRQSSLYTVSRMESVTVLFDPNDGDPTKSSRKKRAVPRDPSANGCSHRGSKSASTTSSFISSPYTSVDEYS
Kind of series: Isolated smooth muscle: rat portal vein (RatPV), NK3-mediated contraction. The class given is biochemical. The source says: (§1) In order to evaluate the functional activity of the compounds of the invention as antagonists of neurokinins, three preparations isolated from smooth muscle were used: rabbit vena cava (RVC), endothelium-free rabbit pulmonary artery (RPA) and rat portal vein (RatPV) whose contractile responses are respectively mediated by the NK1, NK2 and NK3 receptors as indicated by D. JUKIC et al. (Life Sci. 1991, 49, 1463-1469).
(§2) The antagonistic power of the compounds of the invention was expressed in the form of pA2 as defined by O. […] and H. O. SCHILD (Brit. J. Pharmacol. 1959, 14, 48-58).

Series [2] deals with T2, human receptors NK1 (Homo sapiens, UniProt P25103).
T2 construct: human lymphoblasts IM-9 specifically expressing the NK1 receptor; endogenous in cells; host or cells: IM-9 human lymphoblasts
Kind of series: Affinity for the human NK1 receptor on IM-9 lymphoblasts. The class given is binding. Particulars: human lymphoblasts IM-9 expressing NK1. From the text:
(§3) The affinity for the human receptors NK1 and NK2 was studied on the human lymphoblasts IM-9 specifically expressing the NK1 receptor as described by D. G. PAYAN et al. (J. Biol. Chem. 1986, 261, 14321-14329)and on CHO-K1 cells transfected with the NK2 receptor based on the "CellPhect transfection" kit (Pharmacia).

For series [3], the target named is T3, NK1 receptors (Oryctolagus cuniculus, UniProt G1SEI7).
T3 construct: three preparations isolated from smooth muscle were used; from tissue; host or cells: rabbit vena cava
Kind of series: Isolated smooth muscle: rabbit vena cava (RVC), NK1-mediated contraction. The class given is biochemical.
Source text: as §1, §2

Series [4] deals with T4, NK2 receptors (Oryctolagus cuniculus, UniProt P79218).
T4 construct: three preparations isolated from smooth muscle were used; from tissue; host or cells: endothelium-free rabbit pulmonary artery
T4 sequence (P79218 1-384): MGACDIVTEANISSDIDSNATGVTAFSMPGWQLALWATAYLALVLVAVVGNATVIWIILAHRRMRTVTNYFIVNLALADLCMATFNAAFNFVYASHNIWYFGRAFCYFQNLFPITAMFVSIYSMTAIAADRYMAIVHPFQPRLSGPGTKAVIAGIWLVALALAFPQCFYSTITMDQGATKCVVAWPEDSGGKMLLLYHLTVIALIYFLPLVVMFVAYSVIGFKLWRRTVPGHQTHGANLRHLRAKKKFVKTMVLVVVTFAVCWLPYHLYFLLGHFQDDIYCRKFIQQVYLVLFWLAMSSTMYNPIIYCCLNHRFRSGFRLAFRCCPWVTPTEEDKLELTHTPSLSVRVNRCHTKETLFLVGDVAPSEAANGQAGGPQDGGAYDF
The series is described as follows: Isolated smooth muscle: endothelium-free rabbit pulmonary artery (RPA), NK2-mediated contraction. The class given is biochemical.
Source text: as §1, §2

Series [5] addresses T5, human receptors NK2 (Homo sapiens, UniProt P21452).
T5 construct: expressed in transfected cells; host or cells: CHO-K1
T5 sequence (P21452 1-398): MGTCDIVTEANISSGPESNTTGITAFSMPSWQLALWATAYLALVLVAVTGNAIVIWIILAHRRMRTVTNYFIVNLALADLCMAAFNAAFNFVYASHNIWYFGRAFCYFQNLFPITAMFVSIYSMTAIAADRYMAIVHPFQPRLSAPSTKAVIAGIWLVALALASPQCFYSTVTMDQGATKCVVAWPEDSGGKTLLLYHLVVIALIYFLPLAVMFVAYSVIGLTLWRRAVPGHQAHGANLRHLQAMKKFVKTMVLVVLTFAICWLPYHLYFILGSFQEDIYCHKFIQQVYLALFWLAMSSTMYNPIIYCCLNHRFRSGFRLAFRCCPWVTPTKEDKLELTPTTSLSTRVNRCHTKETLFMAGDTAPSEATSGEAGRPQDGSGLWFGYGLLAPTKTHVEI
Kind of series: Affinity for the human NK2 receptor on transfected CHO-K1 cells. The class given is binding. Particulars: CHO-K1 cells transfected with NK2 receptor.
Source text: as §3

For series [6], the system named is male Hartley guinea pigs. Kind of series: Inhibition of bronchoconstriction induced by substance P in guinea pigs. Particulars: dose of 1 μmol/kg i.v. The class given is in vivo. How it is done: The study is carried out on male Hartley guinea pigs (Charles River) of a mean weight of 300 to 400 g. […] The animals were pretreated with pyrilamine (1 mg/kg iv), propanolol (1 mg/kg iv). The criterion for assessing the bronchoconstriction is the increase in the tracheal insufflation pressure (TIP) induced by the injection of substance P via the iv route at the dose of 2 nM/kg iv, each animal being its own control. The injection of the test product being carried out relative to the time TO injection of the product. The results are expressed as percentage inhibition of the substance P-induced bronchoconstriction, this percentage being calculated according to the following formula: (ΔTIP before product-ΔTIP after product)/ΔTIP before product (expressed as percentage).

In series [7] the test system is peritoneal mast cells of male rats. Kind of series: Mast cell degranulation in vitro (histamine release). Particulars: rat peritoneal mast cells, 20 min incubation, up to the concentration of 10^-4 M. The class given is cell-based. The method, then: The studies are carried out on peritoneal mast cells of male rats: Sprague-Dawley of mean weight 350 to 400 g and are killed by euthanasia by inhalation of CO2. A peritoneal lavage is carried out with 20 ml of buffer (NaCl 150 mM, KCl 2.7 mM, CaCl2, 0.9 mM, Na2 HPO4, 3 mM, KH2 PO4, 3.5 mM, glucose 5.6 mM, bovine serum albumin 1 mg/ml, pH 6.8).
The lavage liquid is centrifuged at 400 g for 10 min at 4° C. and taken up in a buffer at a density of 2×10^4 mast cells/mi. The compounds are incubated at an increasing concentration for 20 min. The reaction is stopped by placing the tubes on ice and a centrifugation is carried out with 700 g for 10 min at 4° C. The supernatant and the pellet are tested by fluorimetry after condensation with o-phthaldehyde. The histamine released from the cells into the supernatant thus assayed is expressed as percentage of the total histamine content of the cells.

In series [8] the test system is mice (CD1 male). Kind of series: animal or person. The class given is in vivo. Particulars: iv.
The subject of series [9] is guinea pigs. The series is described as follows: Inhibition of plasma extravasation induced by substance P in guinea pig bladder. The class given is in vivo. The conditions noted are these: 0.1 mg/kg intravenously 5 minutes before substance P (1 μg/kg iv). The method, then:
The effect of the compounds on plasma extravasation caused by intravenous injection of substance P (1 μg/kg) in guinea pigs was evaluated on the bladder, according to the method described for rats by C. GARRET et al. (Proc. Natl. Acad. Sci., USA 1991, 88, 10208-20212). Vesical accumulation of Evans blue injected IV at the same time as substance P and 10 minutes before sacrificing, was quantified by spectrophotometry after extraction of the colorant with acetone. The inhibitory activity of the compounds administered intravenously 5 minutes before substance P was expressed as % inhibition compared with a control batch (8 animals per batch).

T3 sequence (G1SEI7 1-407): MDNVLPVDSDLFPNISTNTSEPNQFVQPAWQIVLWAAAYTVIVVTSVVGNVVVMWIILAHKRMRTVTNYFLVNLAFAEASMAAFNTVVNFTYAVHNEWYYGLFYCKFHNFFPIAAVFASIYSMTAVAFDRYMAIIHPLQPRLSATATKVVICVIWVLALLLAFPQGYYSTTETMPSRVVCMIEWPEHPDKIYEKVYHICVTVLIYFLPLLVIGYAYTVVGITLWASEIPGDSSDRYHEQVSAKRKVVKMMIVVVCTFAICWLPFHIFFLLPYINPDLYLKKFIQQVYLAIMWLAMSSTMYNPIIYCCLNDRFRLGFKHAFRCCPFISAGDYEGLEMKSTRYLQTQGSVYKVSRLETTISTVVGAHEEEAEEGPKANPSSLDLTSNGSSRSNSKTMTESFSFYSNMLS
T2 sequence (P25103 whole entry): as the sequence (G1SEI7 1-407) above, with F12S, D189N, A369P, E371D, N376T, G386C, N391D, Y402S, M405V counted along it

With `CN(Cc1ccccc1)C(=O)C(CC1CCc2ccccc2C1)NC(=O)C1CC(O)CN1C(=O)c1cn(CCCCc2nn[n-]n2)c2ccccc12.[K+]` (mixture of isomers) [Example 3, {1-[4-(1H-tetrazol-5-yl)butyl]indol-3-yl}carbonyl-Hyp-Thn-NMeBzl, potassiu m salt], in series [1], the “NK3 (VPR) pA2” value is on record as 5.87. The Ki in [2] turned out to be 14 nM; in series [5], 1400 nM. The “NK1 (VCL) pA2” value in series [3] is on record as 7.87. In addition, the “NK2 (APL) pA2” value in series [4] came to 5.87.

On to `CN(Cc1ccccc1)C(=O)C(Cc1ccc2ccccc2c1)NC(=O)C1CC(O)CN1C(=O)c1cn(CCCCc2nn[n-]n2)c2ccccc12.[K+]` (stereo not drawn) [Example 1, {1-[4-(1H-tetrazol-5-yl)butyl]indol-3-yl}carbonyl-Hyp-Nal-NMeBzl, potassiu m salt], for which, in [1], the “NK3 (VPR) pA2” value is 4.96. Also, the “% Inhibition of substance P-induced bronchoconstriction” value in [6] is on record as 95%. In series [7], the “Mast cell degranulation (histamine release)” value is listed as “does not cause mast cell degranulation”. In addition, the “ED50 (dose which increases the reaction time by 50%)” value in series [8] (mouse, in vivo) is recorded as 0.018 mg/kg. Moreover, the “NK1 (VCL) pA2” value in series [3] was determined as 9.57. Also, in series [4], the “NK2 (APL) pA2” value is on record as 5.57. In addition, the “% inhibition of substance P-induced plasma extravasation (bladder)” value in series [9] is on record as 56%. This molecule also registered a Ki in series [5] of 2400 nM.

In the case of `CN(Cc1ccccc1)C(=O)C(Cc1ccc2c(c1)CCCC2)NC(=O)C1CC(O)CN1C(=O)c1cn(CCCCc2nn[n-]n2)c2ccccc12.[K+]` (stereo not drawn) [Example 2, {1-[4-(1H-tetrazol-5-yl)butyl]indol-3-yl}carbonyl-Hyp-Tna-NMeBzl, potassiu m salt], in [1], the “NK3 (VPR) pA2” value is 5.87. In addition, the Ki is 14 nM in series [2] and 3600 nM in series [5]. Also, the “NK1 (VCL) pA2” value in series [3] came to 8.17. For the same molecule, in [4], the “NK2 (APL) pA2” value was 6.47.

Consider `CN(Cc1ccccc1)C(=O)C(Cc1ccc2ccccc2c1)NC(=O)C1CC(O)CN1C(=O)c1cn(Cc2nn[n-]n2)c2ccccc12.[K+]` (stereo not drawn) [Example 4, {1-[(1H-tetrazol-5-yl)methyl]indol-3-yl}carbonyl-Hyp-Nal-NMeBzl,potassium salt], for which, in [1], the “NK3 (VPR) pA2” value was 5.84. The “% Inhibition of substance P-induced bronchoconstriction” value in series [6] is 61%. Also, the Ki in [2] was 0.78 nM; in [5], greater than 1000 nM. The “NK1 (VCL) pA2” value in series [3] amounted to 8.14.

Take `CN(Cc1ccccc1)C(=O)C(Cc1ccc2ccccc2c1)NC(=O)C1CC(O)CN1C(=O)c1cn(CCc2nn[nH]n2)c2ccccc12` (stereo not drawn) [Example 5, {1-[2-(1H-tetrazol-5-yl)ethyl]indol-3-yl}carbonyl-Hyp-Nal-NMeBzl, potassiu m salt]: the Ki is 0.63 nM in series [2] and greater than 10000 nM in [5].

Take `CN(Cc1ccccc1)C(=O)C(Cc1ccc2ccccc2c1)NC(=O)C1CC(O)CN1C(=O)c1cn(CCCc2nn[n-]n2)c2ccccc12.[K+]` (stereo not drawn) [Example 6, [1-[3-(1H-tetrazol-5-yl)propyl]indol-3-yl}carbonyl-Hyp-Nal-NMeBzl, potassium salt]: the “% Inhibition of substance P-induced bronchoconstriction” value in series [6] amounted to 60%. For the same molecule, the Ki in series [2] is 1.2 nM; in series [5], greater than 1000 nM. Further, the “NK1 (VCL) pA2” value in series [3] is given as 8.46. Further, the “NK2 (APL) pA2” value in series [4] turned out to be 5.20.

As to `CN(Cc1ccccc1)C(=O)C(Cc1ccc2ccccc2c1)NC(=O)C1CC(O)CN1C(=O)c1cn(CCCCCc2nn[n-]n2)c2ccccc12.[K+]` (stereo not drawn) [Example 7, {1-[5-(1H-tetrazol-5-yl)pentyl]indol-3-yl}carbonyl-Hyp-Nal-NMeBzl, potassium salt], the “% Inhibition of substance P-induced bronchoconstriction” value in series [6] stood at 58%. Further, the Ki in [2] was 5.9 nM; in series [5], 10000 nM. The “NK1 (VCL) pA2” value in series [3] was 7.88.

On to `CN(Cc1ccccc1)C(=O)C(Cc1cccs1)NC(=O)C1CC(O)CN1C(=O)c1cn(CCCCc2nn[nH]n2)c2ccccc12` (stereo not drawn) [Example 8, {1-[4-(1H-tetrazol-5-yl)butyl]indol-3-yl}carbonyl-Hyp-Thi-NMeBzl, potassiu m salt], for which the Ki in series [2] was 110 nM; in series [5], greater than 1000 nM.

As to `CN(Cc1ccccc1)C(=O)C(Cc1ccc(Cl)cc1)NC(=O)C1CC(O)CN1C(=O)c1cn(CCCCc2nn[nH]n2)c2ccccc12` (stereo not shown) [Example 9, {1-[4-(1H-tetrazol-5-yl)butyl]indol-3-yl}carbonyl-Hyp-(4-chloro)Phe-NMeBz potassium salt], the Ki in series [2] came to 22 nM; in series [5] it was 3900 nM.

`COc1ccc(CC(NC(=O)C2CC(O)CN2C(=O)c2cn(CCCCc3nn[nH]n3)c3ccccc23)C(=O)N(C)Cc2ccccc2)cc1OC` (stereo not shown) [Example 10, {1-[4-(1H-tetrazol-5-yl)butyl]indol-3-yl}carbonyl-Hyp-(3,4-dimethoxy)Phe-NMeBzl, potassium salt]: the Ki in [2] was 180 nM; in series [5], greater than 10000 nM.

With `CN(Cc1ccccc1)C(=O)C(CC1CCCCC1)NC(=O)C1CC(O)CN1C(=O)c1cn(CCCCc2nn[nH]n2)c2ccccc12` (stereo not drawn) [Example 11, {1-[4-(1H-tetrazol-5-yl)butyl]indol-3-yl}carbonyl-Hyp-Cha-NMeBzl, potassium salt], the Ki is 52 nM in series [2] and greater than 1000 nM in [5].

For the molecule `CN1CC[C@]23c4c5ccc(O)c4O[C@H]2[C@@H](O)C=C[C@H]3[C@H]1C5` [morphine, reference compound], in series [8] (Mus musculus, read-out: ED50 (dose which increases the reaction time by 50%)), the ED50 was determined as 0.3 mg/kg.
